Measured values taken from patent US8975398B2, “NAMPT inhibitors” (AbbVie Inc., priority 2012, dated 2015).

Tested on: collagen-induced arthritis
Experiment: not given
Details: Busso, N. et al. Plos One 3, e2267, 2008; cited from earlier work
For O=C(/C=C/c1cccnc1)NCCCCC1CCN(C(=O)c2ccccc2)CC1 [FK866], the “efficacy in animal models of arthritis (collagen-induced arthritis)” value is given as “efficacious”.

Tested on: experimental autoimmune encephalomyelitis (EAE)
Experiment: not given
Details: model of T-cell mediated autoimmune disorders; Bruzzone, S et al. Plos One 4, e7897, 2009; cited from earlier work
In the case of O=C(/C=C/c1cccnc1)NCCCCC1CCN(C(=O)c2ccccc2)CC1 [FK866], the “manifestations of experimental autoimmune encephalomyelitis (EAE)” value is given as “ameliorated the manifestations”.

Tested on: activated T cells
Experiment: not given
Details: Busso, N. et al. Plos One 3, e2267, 2008; cited from earlier work
In the case of O=C(/C=C/c1cccnc1)NCCCCC1CCN(C(=O)c2ccccc2)CC1 [FK866], the “apoptosis of activated T cells” value is given as “induce apoptosis” and the “proliferation of activated T cells” value is given as “selectively block proliferation”.

Tested on: PC3 cells
Experiment: NAMPT Cell Proliferation Assay (Cell Titer Glo; also performed in the presence of 0.3 mM nicotinamide mononucleotide)
Format: cell-based
Details: Homo sapiens, PC-3, 120 h, 5 days incubation, cell viability by Cell Titer Glo
How it was run: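 Viability read by Cell Titer Glo after 5-day compound treatment of PC3 cells, dose range 10 μM down to 1×10^−5 μM in 10-fold steps; a second run adds 0.3 mM nicotinamide mononucleotide. Sigmoidal dose-response fitting of percent inhibition gives IC50.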
In the case of Cc1ccc(C(=O)N2CCC(Cc3ccc(NC(=O)C4CN(c5cccnn5)C4)cc3)CC2)cn1 [Example 939, N-[4-({1-[(6-methylpyridin-3-yl)carbonyl]piperidin-4-yl}methyl)phenyl]-1-(pyridazin-3-yl)azetidine-3-carboxamide], the IC50 is reported as 2.96 nM. For CSCC(=O)N1CCC(Cc2ccc(NC(=O)C3CN(c4cccnn4)C3)cc2)CC1 [Example 932, N-[4-({1-[(methylsulfanyl)acetyl]piperidin-4-yl}methyl)phenyl]-1-(pyridazin-3-yl)azetidine-3-carboxamide], the IC50 was 5.82 nM. O=C(NCC1CCOC1)c1ccc(NC(=O)C2CN(c3cccnn3)C2)cc1 (stereo not drawn) [Example 989, 1-(pyridazin-3-yl)-N-{4-[(tetrahydrofuran-3-ylmethyl)carbamoyl]phenyl}azetidine-3-carboxamide] showed an IC50 of 602 nM. CC[C@@H](C)NC(=O)c1ccc(NC(=O)C2CN(c3cccnn3)C2)cc1 [Example 987, N-{4-[(2R)-butan-2-ylcarbamoyl]phenyl}-1-(pyridazin-3-yl)azetidine-3-carboxamide] showed an IC50 of 609 nM. Molecule O=C(Nc1ccc(CC2CCN(C(=O)CCC(F)(F)F)CC2)cc1)C1CN(c2cccnn2)C1 [Example 900, 1-(pyridazin-3-yl)-N-(4-{[1-(4,4,4-trifluorobutanoyl)piperidin-4-yl]methyl}phenyl)azetidine-3-carboxamide] has an IC50 of 2.24 nM. CCOCC(=O)N1CCC(Cc2ccc(NC(=O)C3CN(c4cccnn4)C3)cc2)CC1 [Example 946, N-(4-{[1-(ethoxyacetyl)piperidin-4-yl]methyl}phenyl)-1-(pyridazin-3-yl)azetidine-3-carboxamide] showed an IC50 of 2.89 nM. Work on CC(C)(C)CC(=O)N1CCC(c2ccc(C(=O)N[C@H]3CCN(c4cccnn4)C3)s2)CC1 [Example 1014, 5-[1-(3,3-dimethylbutanoyl)piperidin-4-yl]-N-[(3S)-1-(pyridazin-3-yl)pyrrolidin-3-yl]thiophene-2-carboxamide] yielded an IC50 of 219 nM. Cc1ccc(N2CC(C(=O)Nc3ccc(O[C@@H]4CCN(C(=O)CC(C)C)C4)cc3)C2)nn1 [Example 915, N-(4-{[(3R)-1-(3-methylbutanoyl)pyrrolidin-3-yl]oxy}phenyl)-1-(6-methylpyridazin-3-yl)azetidine-3-carboxamide] showed an IC50 of 139 nM. For CCCC(=O)N1CCC(Cc2ccc(NC(=O)C3CN(c4cccnn4)C3)cc2)CC1 [Example 959, N-{4-[(1-butanoylpiperidin-4-yl)methyl]phenyl}-1-(pyridazin-3-yl)azetidine-3-carboxamide], the IC50 was 2.33 nM. C=CCNC(=O)c1ccc(NC(=O)C2CN(c3cccnn3)C2)cc1 [Example 1012, N-[4-(prop-2-en-1-ylcarbamoyl)phenyl]-1-(pyridazin-3-yl)azetidine-3-carboxamide] showed an IC50 of 782 nM. Molecule CC(C)C(=O)N1CCC(c2ccc(NC(=O)C3CN(c4cccnn4)C3)cc2F)CC1 [Example 880, N-{3-fluoro-4-[1-(2-methylpropanoyl)piperidin-4-yl]phenyl}-1-(pyridazin-3-yl)azetidine-3-carboxamide] has an IC50 of 15.4 nM. For O=C(Nc1ccc(CC2CCN(C(=O)c3nccs3)CC2)cc1)C1CN(c2cccnn2)C1 [Example 951, 1-(pyridazin-3-yl)-N-(4-{[1-(1,3-thiazol-2-ylcarbonyl)piperidin-4-yl]methyl}phenyl)azetidine-3-carboxamide], the IC50 was 2.77 nM. Work on Cc1ccccc1C(=O)N1CCC(Cc2ccc(NC(=O)C3CN(c4cccnn4)C3)cc2)CC1 [Example 963, N-(4-{[1-(2-methylbenzoyl)piperidin-4-yl]methyl}phenyl)-1-(pyridazin-3-yl)azetidine-3-carboxamide] yielded an IC50 of 2.14 nM. In the case of CC(C)(C)C(=O)N1CCC(c2ccc(NC(=O)C3CN(c4cccnn4)C3)cc2F)CC1 [Example 886, N-{4-[1-(2,2-dimethylpropanoyl)piperidin-4-yl]-3-fluorophenyl}-1-(pyridazin-3-yl)azetidine-3-carboxamide], the IC50 is reported as 7.66 nM. For CC(C)(C)CNC(=O)c1ccc(NC(=O)C2CN(c3cccnn3)C2)cc1 [Example 973, N-{4-[(2,2-dimethylpropyl)carbamoyl]phenyl}-1-(pyridazin-3-yl)azetidine-3-carboxamide], the IC50 was 5.53 nM. Cc1ccc(N2CC[C@H](C(=O)Nc3ccc(C4CCN(C(=O)c5ccccc5)CC4)cc3)C2)nn1 [Example 893, (3S)—N-[4-(1-benzoylpiperidin-4-yl)phenyl]-1-(6-methylpyridazin-3-yl)pyrrolidine-3-carboxamide] gave an IC50 of 681 nM. Work on O=C(Nc1ccc(CC2CCN(C(=O)c3cncs3)CC2)cc1)C1CN(c2cccnn2)C1 [Example 927, 1-(pyridazin-3-yl)-N-(4-{[1-(1,3-thiazol-5-ylcarbonyl)piperidin-4-yl]methyl}phenyl)azetidine-3-carboxamide] yielded an IC50 of 3.9 nM. O=C(Nc1ccc(CC2CCN(C(=O)C3CCCO3)CC2)cc1)C1CN(c2cccnn2)C1 (stereo not drawn) [Example 944, 1-(pyridazin-3-yl)-N-(4-{[1-(tetrahydrofuran-2-ylcarbonyl)piperidin-4-yl]methyl}phenyl)azetidine-3-carboxamide] gave an IC50 of 7.14 nM. In the case of O=C(NC[C@@H]1CCCO1)c1ccc(NC(=O)C2CN(c3cccnn3)C2)cc1 [Example 1000, 1-(pyridazin-3-yl)-N-(4-{[(2S)-tetrahydrofuran-2-ylmethyl]carbamoyl}phenyl)azetidine-3-carboxamide], the IC50 is reported as 77 nM. In the case of O=C(Nc1ccc(C2(O)CCN(C(=O)c3ccccc3F)CC2)cc1)C1CN(c2cccnn2)C1 [Example 889, N-{4-[1-(2-fluorobenzoyl)-4-hydroxypiperidin-4-yl]phenyl}-1-(pyridazin-3-yl)azetidine-3-carboxamide], the IC50 is reported as 2.85 nM. In the case of CC1(Cn2cc(-c3ccc(NC(=O)C4CN(c5cccnn5)C4)cc3)cn2)CCNCC1 [Example 873, N-(4-{1-[(4-methylpiperidin-4-yl)methyl]-1H-pyrazol-4-yl}phenyl)-1-(pyridazin-3-yl)azetidine-3-carboxamide], the IC50 is reported as 675 nM. With O=C(Nc1ccccc1F)c1ccc(NC(=O)C2CN(c3cccnn3)C2)cc1 [Example 1010, N-{4-[(2-fluorophenyl)carbamoyl]phenyl}-1-(pyridazin-3-yl)azetidine-3-carboxamide] the IC50 was 70.9 nM. Molecule O=C(NC1CC1)c1ccc(NC(=O)C2CN(c3cccnn3)C2)cc1 [Example 1004, N-[4-(cyclopropylcarbamoyl)phenyl]-1-(pyridazin-3-yl)azetidine-3-carboxamide] has an IC50 of 7920 nM.
